Measured values reported in paper PMC7411736, “Effects of Sesamin, the Major Furofuran Lignan of Sesame Oil, on the Amplitude and Gating of Voltage-Gated Na^+ and K^+ Currents” (Molecules, 2020).
pIC50, pKd: −log10 of the molar value. Where two headings read alike, the source gives them in different places. Blank lines part the entries; values can stand above or below the compound they belong to.

How the values were obtained:
Type in all cases: cell-based, rat
[1] = test system: voltage-gated Na+ currents (INa) in pituitary GH3 cells; assay: Whole-cell patch-clamp of voltage-gated Na+ current evoked by depolarization from −80 to −10 mV; details: for Effect on SSM-induced inhibition of peak INa: 10 μM added in continued presence of SSM (3 μM); for Effect on peak amplitude of INa: −80 to −10 mV (Figure 2); for pIC50: GH3 cells, depolarization −80 to −10 mV
Protocol: In an initial step of the experiments, we examined the effects of SSM on the amplitude and gating of INa in response to rapid membrane depolarization. Cells were bathed in Ca^2+-free Tyrode’s solution containing 10 mM tetraethylammonium chloride (TEA) and the recording pipette was backfilled with a Cs^+-containing solution. […] For example, when rapid membrane depolarization from −80 to −10 mV with a duration of 40 msec was delivered (indicated in the inset of Figure 1A) to evoke INa, the addition of 3 μM SSM caused a decrease in the peak or sustained amplitude of INa to 139 ± 11 pA (n = 11, P < 0.05) or 12 ± 3 pA (n = 11, P < 0.05), respectively, from the control values of 248 ± 18 or 21 ± 2 pA (n = 11). After the removal of SSM, the peak and sustained amplitude returned to 232 ± 16 or 19 ± 2 pA (n = 7, P < 0.05).
The bath solution (i.e., a HEPES-buffered normal Tyrode’s solution) utilized in the present study was composed of 136 mM NaCl, 5.4 mM KCl, 1.8 mM CaCl2, 0.53 mM MgCl2, 5.5 mM glucose, and 5.5 mM HEPES titrated with NaOH to pH 7.4. To measure macroscopic IK(DR) and Ih, we filled patch pipettes by using a solution containing 130 mM K-aspartate, 20 mM KCl, 1 mM KH2PO4, 1 mM MgCl2, 3 mM Na2ATP, 0.1 mM Na2GTP, 0.1 mM EGTA, and 5 mM HEPES adjusted with KOH to pH 7.2. To record INa and INa(R), we substituted K^+ ions in the pipette solution inside the electrode for equmolar Cs^+ ions and the pH value in the solution was adjusted to 7.2 with CsOH. To measure IK(erg) and IK(M), cells were bathed in a high-K^+ solution containing 145 mM KCl, 0.53 mM MgCl2, and 5 mM HEPES-KOH buffer, pH 7.4. All solutions were prepared using deionized water from a Millipore Milli-Q purification system (ρ = 18 MΩ·cm) (Merck, Ltd., Taipei, Taiwan). The pipette solution and culture medium were filtered on the day of use with a sterile Acrodisc® syringe filter with a 0.2-μm Supor® membrane (Bio-Check; New Taipei City, Taiwan).
The pituitary adenomatous cell line, GH3, was acquired from the Bioresource Collection and Research Center ((BCRC-60015, https://catalog.bcrc.firdi.org.tw/BcrcContent?bid=60015); Hsinchu, Taiwan). Cells were maintained in Ham’s F-12 medium supplemented with 2.5% fetal bovine serum (v/v), 15% horse serum (v/v), and 2 mM L-glutamine in a humidified environment of 5% CO2/95% air. When well differentiated, GH3 cells were transferred to a serum- and Ca^2+-free medium. Electrical recordings were performed 5 or 6 days after cells were cultured with 60–80% confluence.
On the day of each experiment, cells were dispersed with a 1% trypsin/EDTA solution and a few drops of cell suspension were rapidly placed in a custom-built recording chamber mounted on the stage of an inverted DM-IL microscope (Leica; Major Instruments, Kaohsiung, Taiwan). They were immersed at room temperature (20–25 °C) in normal Tyrode’s solution, the composition of which is elaborated above. We measured ion currents in the whole-cell model of a standard patch-clamp technique with dynamic adaptive suctioning (i.e., decremental change of suction pressure in response to a progressive increase in the electrode resistance), with the aid of an RK-400 (Bio-Logic, Claix, France) or an Axopatch-200B (Molecular Devices, Sunnyvale, CA) patch amplifier. The microelectrodes used were prepared from Kimax-51 borosilicate capillaries with a 1.5-mm outer diameter (#34500; Kimble; Dogger, New Taipei City, Taiwan) by using a PP-830 vertical puller (Narishige, Taiwan Instrument, Taipei, Taiwan). The recording electrodes had their tip resistances, which ranged between 3 and 5 MΩ, as they were filled up with the different internal solutions elaborated above. During the measurements, the recorded area on the vibration-free table was shielded by using a Faraday cage (Scitech, Seoul, South Korea). […]

[2] = test system: hyperpolarization-activated cation currents (Ih) in GH3 cells; assay: Whole-cell patch-clamp of hyperpolarization-activated cation current (−40 to −110 mV)
Protocol: In the following experiments, we further studied whether the presence of SSM could perturb another type of inwardly directed current, i.e., Ih. Cells were exposed to Ca^2+-free Tyrode’s solution containing 1 μM TTX and the pipette was filled with K^+-containing solution. As the hyperpolarizing command pulse from −40 to −110 mV with a duration of 2 sec was delivered, Ih with a slowly activating property was robustly evoked, as observed previously. […] Cilobradine has recently been reported to decrease Ih amplitude, as well as to alter activation kinetics present in different types of excitable cells.
(§1) The bath solution (i.e., a HEPES-buffered normal Tyrode’s solution) utilized in the present study was composed of 136 mM NaCl, 5.4 mM KCl, 1.8 mM CaCl2, 0.53 mM MgCl2, 5.5 mM glucose, and 5.5 mM HEPES titrated with NaOH to pH 7.4. To measure macroscopic IK(DR) and Ih, we filled patch pipettes by using a solution containing 130 mM K-aspartate, 20 mM KCl, 1 mM KH2PO4, 1 mM MgCl2, 3 mM Na2ATP, 0.1 mM Na2GTP, 0.1 mM EGTA, and 5 mM HEPES adjusted with KOH to pH 7.2. To record INa and INa(R), we substituted K^+ ions in the pipette solution inside the electrode for equmolar Cs^+ ions and the pH value in the solution was adjusted to 7.2 with CsOH. […]
(§2) On the day of each experiment, cells were dispersed with a 1% trypsin/EDTA solution and a few drops of cell suspension were rapidly placed in a custom-built recording chamber mounted on the stage of an inverted DM-IL microscope (Leica; Major Instruments, Kaohsiung, Taiwan). […] We measured ion currents in the whole-cell model of a standard patch-clamp technique with dynamic adaptive suctioning (i.e., decremental change of suction pressure in response to a progressive increase in the electrode resistance), with the aid of an RK-400 (Bio-Logic, Claix, France) or an Axopatch-200B (Molecular Devices, Sunnyvale, CA) patch amplifier. […] During the measurements, the recorded area on the vibration-free table was shielded by using a Faraday cage (Scitech, Seoul, South Korea). […]

[3] = test system: resurgent INa (INa(R)) in GH3 cells; assay: Whole-cell patch-clamp of resurgent INa (step to +20 mV, repolarization to −50 to 0 mV); details: 1 μM; at −30 mV; control 46 ± 6 pA; n = 8
Text: We next wanted to determine whether SSM exerts any effects on INa(R) identified from these cells. The whole-cell experiments on INa(R) were undertaken when each cell was voltage clamped at −80 mV and a brief depolarizing step to +20 mV was delivered to activate transient INa. The INa(R) upon repolarization to various potentials ranging between −50 and 0 mV was thereafter measured at the end of voltage pulses (Figure 4). The effect of SSM on INa(R) was examined at various membrane potentials, and the I-V relationship of INa(R) with or without the addition of SSM was constructed. […]
as §2

[4] = test system: M-type K+ currents (IK(M)) in GH3 cells; assay: Whole-cell patch-clamp of M-type K+ current (depolarization from −50 to −10 mV, 1 sec); details: amplitude at end of pulse, read-out: IC50 for decrease of IK
Text: The following experiments were further undertaken to determine whether the addition of SSM could exert any perturbations on the amplitude or gating of IK(M) in these cells. Cells were bathed in high-K^+, Ca^2+-free solution, and the recording pipette was then filled with K^+-enriched solution. Figure 5 illustrates that the presence of SSM can result in a concentration-dependent depression in the amplitude of IK(M) during step depolarization.
The bath solution (i.e., a HEPES-buffered normal Tyrode’s solution) utilized in the present study was composed of 136 mM NaCl, 5.4 mM KCl, 1.8 mM CaCl2, 0.53 mM MgCl2, 5.5 mM glucose, and 5.5 mM HEPES titrated with NaOH to pH 7.4. […]
On the day of each experiment, cells were dispersed with a 1% trypsin/EDTA solution and a few drops of cell suspension were rapidly placed in a custom-built recording chamber mounted on the stage of an inverted DM-IL microscope (Leica; Major Instruments, Kaohsiung, Taiwan). […] We measured ion currents in the whole-cell model of a standard patch-clamp technique with dynamic adaptive suctioning (i.e., decremental change of suction pressure in response to a progressive increase in the electrode resistance), with the aid of an RK-400 (Bio-Logic, Claix, France) or an Axopatch-200B (Molecular Devices, Sunnyvale, CA) patch amplifier. […]

[5] = test system: delayed rectifier K+ currents (IK(DR)) in GH3 cells; assay: Whole-cell patch-clamp of delayed rectifier K+ current (1-sec step depolarization)
Protocol: We next examined whether the presence of SSM is able to modify IK(DR) present in GH3 cells. To achieve this goal, we bathed cells in Ca^2+-free Tyrode’s solution which contained 1 μM TTX, and then filled up the recording electrode by using K^+-containing solution. When cells were exposed to SSM at a concentration of 3 μM, the amplitude of IK(DR) in response to a 1-sec step depolarization was unchanged. It is noted, however, that the IK(DR) amplitudes responding to different levels of depolarizing command steps were decreased by the addition of 10 μM SSM, though the activation time course of IK(DR) evoked by membrane depolarization remained unchanged.
as §1, §2

[6] = amplitude at beginning of pulse, read-out: IC50 for decrease of peak INa
[7] = amplitude at end of pulse, read-out: IC50 for decrease of sustained INa

Compound: Cc1c(F)c(F)c(COC(=O)[C@@H]2[C@H](/C=C(\Cl)C(F)(F)F)C2(C)C)c(F)c1F (racemic) [tefluthrin, reference compound]
Effect on SSM-induced inhibition of peak INa [1]: effective in reversing

Compound: c1cc2c(cc1[C@H]1OC[C@H]3[C@@H]1CO[C@@H]3c1ccc3c(c1)OCO3)OCO2 [SSM, [1S-(1α,3aα,4α,6aα)] -5,5’- (tetrahydro-1H,3H-furo [3–4-c]furan-1,4-diyl)bis-1,3-benzodioxole]
Ih amplitude at end of hyperpolarizing step ([2]; 10 μM, at −110 mV, control 388 ± 24 pA, n = 9): 386 ± 26 pA
Effect on peak amplitude of INa ([1]; 3 μM): produced inhibitory effects
Sustained amplitude of INa ([1]; 3 μM, −80 to −10 mV, 40 msec, control 21 ± 2 pA, n = 11): 12 ± 3 pA
Peak amplitude of INa ([1]; 3 μM, −80 to −10 mV, 40 msec, control 248 ± 18 pA, n = 11): 139 ± 11 pA
Effect on peak component of INa ([1]; 0.1 to 0.3 μM): little or no effect
Effect on sustained component of INa ([1]; 0.1 to 0.3 μM): effectively blocked
pIC50 [1, 6]: 5.14
pIC50 [1, 7]: 6.22
pKd ([1]; first-order reaction scheme, open-state block, read-out: Dissociation constant (KD = k−1/k+1*) of INa block): 6.03
Unblocking (backward) rate constant k−1 of INa block ([1]; from intercept of 1/τinact(S) versus [SSM]): 0.0415 msec^−1
Blocking (forward) rate constant k+1* of INa block ([1]; from slope of 1/τinact(S) versus [SSM]): 0.0449 msec^−1μM^−1
Peak amplitude of INa after removal of compound ([1]; washout after 3 μM, n = 7): 232 ± 16 pA
Sustained amplitude of INa after removal of compound ([1]; washout after 3 μM, n = 7): 19 ± 2 pA
INa(R) amplitude [3]: 22 ± 5 pA
pIC50 [4]: 5.32
Effect on amplitude of IK(DR) ([5]; 3 μM, 1-sec step depolarization): unchanged
IK(DR) amplitude ([5]; 10 μM, at +40 mV, control 598 ± 34 pA, n = 8): 454 ± 29 pA
Decrease of IK(DR) amplitude ([5]; 10 μM, at +40 mV, n = 8): 23 ± 4%

pIC50 [1, 6]: 5.01
pIC50 [1, 7]: 5.60
Compound: c1cc2c(cc1O[C@H]1OC[C@H]3[C@@H]1CO[C@@H]3c1ccc3c(c1)OCO3)OCO2 [SesA, 5-[(1S,3aR,4R,6aR)-4-(1,3-benzodioxol-5-yloxy)tetrahydro-1H,3H-furo[3,4-c]furan-1-yl]-1,3-benzodioxole]
Effect on Ih amplitude ([2]; 10 μM): minimal effect
Effect on peak amplitude of INa ([1]; 3 μM): produced inhibitory effects

Compound: COc1ccc(CCN2CCC[C@H](CN3CCc4cc(OC)c(OC)cc4CC3=O)C2)cc1OC [cilobradine, reference compound]
Effect on Ih amplitude ([2]; 3 or 10 μM added in continued presence of SSM (10 μM)): highly effective at inhibiting

Compound: CCCc1nc2c(C)cc(-c3nc4ccccc4n3C)cc2n1Cc1ccc(-c2ccccc2C(=O)O)cc1 [telmisartan, reference compound]
Effect on SSM-induced inhibition of peak INa [1]: effective in reversing
